According to ChEMBL document CHEMBL4507327 (2021):

How the values were obtained:
[1] = target: Beta-2 adrenergic receptor (Homo sapiens) (UniProt P07550); details: Compound concentration 10.0 uM
Rattus norvegicus = species: Rattus norvegicus; details: Compound concentration 10.0 uM
[2] = target: Beta-1 adrenergic receptor (Homo sapiens) (UniProt P08588); details: Compound concentration 10.0 uM
[3] = target: Histamine H1 receptor (Homo sapiens) (UniProt P35367); details: Compound concentration 10.0 uM
[4] = target: Beta-1 adrenergic receptor (Homo sapiens) (UniProt P08588); details: Compound concentration 10.0 uM; remark: listed apart in the source
[5] = target: D(3) dopamine receptor (Homo sapiens) (UniProt P35462); details: Compound concentration 10.0 uM
[6] = target: GABA-A receptor; anion channel (Rattus norvegicus) (UniProt O09028+P15431+P18506+P18508+P19969+P20236+P23574+P23576+P28471+P28473+P30191+P62813+P63079+P63138+Q91ZM7+Q9ES14); details: Compound concentration 10.0 uM
[7] = target: D(4) dopamine receptor (Homo sapiens) (UniProt P21917); details: Compound concentration 10.0 uM
[8] = target: STE20/SPS1-related proline-alanine-rich protein kinase (Homo sapiens, UniProt Q9UEW8); assay: STLK3(ST39LGRJ) Takeda global kinase panel
[9] = target: Sodium-dependent serotonin transporter (Homo sapiens) (UniProt P31645); details: Compound concentration 10.0 uM
[10] = target: 5-hydroxytryptamine receptor 2A (Homo sapiens) (UniProt P28223); details: Compound concentration 10.0 uM
[11] = target: Muscarinic acetylcholine receptor M4 (Homo sapiens) (UniProt P08173); details: Compound concentration 10.0 uM
[12] = target: Mitogen-activated protein kinase 4 (Homo sapiens, UniProt P31152); assay: ERK4(MAP4LGY1) Takeda global kinase panel
[13] = target: Histamine H4 receptor (Homo sapiens) (UniProt Q9H3N8); details: Compound concentration 10.0 uM
[14] = target: T1, Muscarinic acetylcholine receptor M1 (Homo sapiens) (UniProt P11229); details: Compound concentration 10.0 uM
T1 sequence (whole entry): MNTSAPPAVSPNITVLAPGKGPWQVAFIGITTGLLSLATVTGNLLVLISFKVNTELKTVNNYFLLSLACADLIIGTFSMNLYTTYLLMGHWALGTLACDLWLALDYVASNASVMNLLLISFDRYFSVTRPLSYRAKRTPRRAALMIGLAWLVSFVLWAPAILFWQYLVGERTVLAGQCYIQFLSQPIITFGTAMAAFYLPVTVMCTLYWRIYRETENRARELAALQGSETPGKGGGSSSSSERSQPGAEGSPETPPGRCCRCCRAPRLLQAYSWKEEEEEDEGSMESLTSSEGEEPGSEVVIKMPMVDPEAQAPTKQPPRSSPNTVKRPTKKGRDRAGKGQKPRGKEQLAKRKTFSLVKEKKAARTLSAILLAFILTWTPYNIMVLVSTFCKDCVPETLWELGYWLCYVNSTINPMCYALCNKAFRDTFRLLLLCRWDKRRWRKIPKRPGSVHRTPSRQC

[15] = target: Prostaglandin E2 receptor EP4 subtype (Homo sapiens) (UniProt P35408); assay: Inhibition of Prostanoid EP4 at 10 µM in the Eurofins-Panlabs radioligand binding assay (Eurofins_assay_268420); set-up: ligand concentration 1 nM; details: Compound concentration 10.0 uM
[16] = target: Beta-3 adrenergic receptor (Homo sapiens) (UniProt P13945); details: Compound concentration 10.0 uM
[17] = target: Serine/threonine-protein kinase Nek8 (Homo sapiens, UniProt Q86SG6); assay: Nek8(NEK8LGRI) Takeda global kinase panel
[18] = target: Calcium/calmodulin-dependent protein kinase type II subunit beta (Homo sapiens, UniProt Q13554); assay: CaMK2beta(CA2BCGT1) Takeda global kinase panel
[19] = target: Tyrosine-protein kinase JAK2 (Homo sapiens, UniProt O60674); assay: JAK2(JAK2LGF1) Takeda global kinase panel
[20] = target: Interleukin-1 receptor-associated kinase 1 (Homo sapiens, UniProt P51617); assay: IRAK1(IRK1LGF1) Takeda global kinase panel
[21] = target: Serine/threonine-protein kinase 25 (Homo sapiens, UniProt O00506); assay: YSK1(ST25LHY1) Takeda global kinase panel
[22] = target: Fibroblast growth factor receptor 1 (Homo sapiens, UniProt P11362); assay: FGFR1(FGF1LGF1) Takeda global kinase panel
[23] = target: cAMP-dependent protein kinase catalytic subunit gamma (Homo sapiens, UniProt P22612); assay: PKAgamma(PRCGLGY1) Takeda global kinase panel
[24] = target: Glutamate NMDA receptor (Rattus norvegicus) (UniProt P35439+Q00959+Q00960+Q00961+Q62645+Q8VHN2+Q9R1M7); details: Compound concentration 10.0 uM
[25] = target: Tyrosine-protein kinase Fyn (Homo sapiens, UniProt P06241); assay: Fyn(FYN1LGF5) Takeda global kinase panel
[26] = target: Epithelial discoidin domain-containing receptor 1 (Homo sapiens, UniProt Q08345); assay: DDR1(DDR1LGF1) Takeda global kinase panel
[27] = target: Protein kinase C gamma type (Homo sapiens, UniProt P05129); assay: PKCgamma(PRKGLGP1) Takeda global kinase panel
[28] = target: Inhibitor of nuclear factor kappa-B kinase subunit beta (Homo sapiens, UniProt O14920); assay: IKKbeta(IKBBLHY1) Takeda global kinase panel
[29] = target: Serine/threonine-protein kinase Sgk1 (Homo sapiens, UniProt O00141); assay: SGK1(SGK1LGF1) Takeda global kinase panel
Activin receptor type-1B = Activin receptor type-1B (Homo sapiens, UniProt P36896); assay: ALK4(AC1BLGF1) Takeda global kinase panel
[30] = target: Serine/threonine-protein kinase 16 (Homo sapiens, UniProt O75716); assay: MPSK1(ST16LGF1) Takeda global kinase panel
[31] = target: Glycogen synthase kinase-3 alpha (Homo sapiens, UniProt P49840); assay: GSK3alpha(GS3ALGK1) Takeda global kinase panel
[32] = target: Calcium/calmodulin-dependent protein kinase type 1 (Homo sapiens, UniProt Q14012); assay: CaMK1alpha(CAM1LGT5) Takeda global kinase panel
[33] = target: Serine/threonine-protein kinase 38-like (Homo sapiens, UniProt Q9Y2H1); assay: NDR2(S38LLGF1) Takeda global kinase panel
Angiopoietin-1 receptor = Angiopoietin-1 receptor (Homo sapiens, UniProt Q02763); assay: TIE2(TEK1LGF1) Takeda global kinase panel
hERG (KCNH2) = hERG (KCNH2) (Homo sapiens, UniProt Q12809); assay: Inhibition of Potassium Channel hERG at 10 µM in the Eurofins-Panlabs radioligand binding assay (Eurofins_assay_265900); set-up: ligand concentration 1.5 nM, non-specific ligand with concentration Astemizole, incubation time 60 min, incubation temperature 25 °C; details: HEK-293 cells that express human recombinant hERG, probe [3H] Astemizole, compound concentration 10 uM

Sequence of Beta-1 adrenergic receptor (Homo sapiens) (P08588 whole entry, looked up): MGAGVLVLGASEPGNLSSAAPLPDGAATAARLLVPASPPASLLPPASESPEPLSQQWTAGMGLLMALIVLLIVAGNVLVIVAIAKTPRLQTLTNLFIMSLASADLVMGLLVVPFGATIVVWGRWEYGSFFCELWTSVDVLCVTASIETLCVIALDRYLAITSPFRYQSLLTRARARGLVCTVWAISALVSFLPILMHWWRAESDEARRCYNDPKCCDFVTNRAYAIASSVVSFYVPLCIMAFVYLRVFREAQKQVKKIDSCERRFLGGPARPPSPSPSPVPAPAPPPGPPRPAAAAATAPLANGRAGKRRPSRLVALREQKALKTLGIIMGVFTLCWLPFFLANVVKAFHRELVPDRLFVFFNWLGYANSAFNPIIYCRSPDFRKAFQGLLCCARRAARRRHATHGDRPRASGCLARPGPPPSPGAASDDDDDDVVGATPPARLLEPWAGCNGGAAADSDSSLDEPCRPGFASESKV
Sequence of Beta-2 adrenergic receptor (Homo sapiens) (P07550 whole entry, looked up): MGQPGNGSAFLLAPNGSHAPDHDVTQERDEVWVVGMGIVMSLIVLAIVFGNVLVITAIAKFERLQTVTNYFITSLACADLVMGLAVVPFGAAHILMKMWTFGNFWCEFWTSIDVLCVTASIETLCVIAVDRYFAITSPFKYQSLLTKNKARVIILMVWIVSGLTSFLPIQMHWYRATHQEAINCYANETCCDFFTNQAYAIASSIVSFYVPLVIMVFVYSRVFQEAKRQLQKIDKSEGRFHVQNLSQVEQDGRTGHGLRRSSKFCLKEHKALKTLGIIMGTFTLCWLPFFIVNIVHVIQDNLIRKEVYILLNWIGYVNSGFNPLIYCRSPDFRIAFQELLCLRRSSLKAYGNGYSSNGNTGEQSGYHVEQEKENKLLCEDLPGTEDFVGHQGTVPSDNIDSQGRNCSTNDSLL
Sequence of Tyrosine-protein kinase JAK2 (O60674 whole entry): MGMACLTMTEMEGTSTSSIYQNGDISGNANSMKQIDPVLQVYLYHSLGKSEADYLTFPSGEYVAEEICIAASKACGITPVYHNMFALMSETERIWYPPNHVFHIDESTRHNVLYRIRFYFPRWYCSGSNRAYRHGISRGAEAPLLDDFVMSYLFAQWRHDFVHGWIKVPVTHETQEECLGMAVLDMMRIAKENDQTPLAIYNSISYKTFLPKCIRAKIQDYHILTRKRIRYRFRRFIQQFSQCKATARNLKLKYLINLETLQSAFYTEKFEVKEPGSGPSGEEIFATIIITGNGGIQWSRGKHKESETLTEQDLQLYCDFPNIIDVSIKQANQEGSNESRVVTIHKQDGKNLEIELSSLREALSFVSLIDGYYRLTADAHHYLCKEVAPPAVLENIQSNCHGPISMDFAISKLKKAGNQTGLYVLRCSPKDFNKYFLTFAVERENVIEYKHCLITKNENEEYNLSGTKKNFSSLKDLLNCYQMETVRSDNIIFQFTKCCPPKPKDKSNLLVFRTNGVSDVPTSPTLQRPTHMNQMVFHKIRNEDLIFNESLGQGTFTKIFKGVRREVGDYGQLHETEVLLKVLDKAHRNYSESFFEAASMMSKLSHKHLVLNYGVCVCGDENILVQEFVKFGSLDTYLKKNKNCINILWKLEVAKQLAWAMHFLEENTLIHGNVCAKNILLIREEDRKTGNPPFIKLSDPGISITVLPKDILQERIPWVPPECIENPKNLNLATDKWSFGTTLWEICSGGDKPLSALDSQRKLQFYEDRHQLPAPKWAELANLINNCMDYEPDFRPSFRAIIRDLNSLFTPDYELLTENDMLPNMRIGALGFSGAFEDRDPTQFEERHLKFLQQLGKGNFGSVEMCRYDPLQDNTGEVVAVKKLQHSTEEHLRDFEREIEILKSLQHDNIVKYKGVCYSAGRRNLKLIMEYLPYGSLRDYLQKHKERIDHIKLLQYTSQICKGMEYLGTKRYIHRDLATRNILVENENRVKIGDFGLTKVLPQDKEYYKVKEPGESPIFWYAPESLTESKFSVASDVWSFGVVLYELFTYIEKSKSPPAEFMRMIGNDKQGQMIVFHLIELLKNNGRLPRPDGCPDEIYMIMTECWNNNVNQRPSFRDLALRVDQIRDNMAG
Sequence of 5-hydroxytryptamine receptor 2A (Homo sapiens) (P28223 whole entry): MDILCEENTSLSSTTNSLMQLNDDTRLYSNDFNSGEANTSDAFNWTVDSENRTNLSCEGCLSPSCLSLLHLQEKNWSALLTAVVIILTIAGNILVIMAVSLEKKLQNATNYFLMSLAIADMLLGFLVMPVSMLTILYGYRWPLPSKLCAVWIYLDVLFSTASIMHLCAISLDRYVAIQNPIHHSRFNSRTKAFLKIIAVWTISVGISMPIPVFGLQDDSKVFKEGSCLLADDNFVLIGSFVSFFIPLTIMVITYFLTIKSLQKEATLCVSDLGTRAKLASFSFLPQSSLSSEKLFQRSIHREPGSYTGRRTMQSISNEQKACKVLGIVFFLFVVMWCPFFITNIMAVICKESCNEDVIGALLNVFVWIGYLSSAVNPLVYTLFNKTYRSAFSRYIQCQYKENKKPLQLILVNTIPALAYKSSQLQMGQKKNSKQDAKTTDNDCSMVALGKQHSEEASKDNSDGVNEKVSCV
Sequence of Sodium-dependent serotonin transporter (Homo sapiens) (P31645 whole entry, looked up): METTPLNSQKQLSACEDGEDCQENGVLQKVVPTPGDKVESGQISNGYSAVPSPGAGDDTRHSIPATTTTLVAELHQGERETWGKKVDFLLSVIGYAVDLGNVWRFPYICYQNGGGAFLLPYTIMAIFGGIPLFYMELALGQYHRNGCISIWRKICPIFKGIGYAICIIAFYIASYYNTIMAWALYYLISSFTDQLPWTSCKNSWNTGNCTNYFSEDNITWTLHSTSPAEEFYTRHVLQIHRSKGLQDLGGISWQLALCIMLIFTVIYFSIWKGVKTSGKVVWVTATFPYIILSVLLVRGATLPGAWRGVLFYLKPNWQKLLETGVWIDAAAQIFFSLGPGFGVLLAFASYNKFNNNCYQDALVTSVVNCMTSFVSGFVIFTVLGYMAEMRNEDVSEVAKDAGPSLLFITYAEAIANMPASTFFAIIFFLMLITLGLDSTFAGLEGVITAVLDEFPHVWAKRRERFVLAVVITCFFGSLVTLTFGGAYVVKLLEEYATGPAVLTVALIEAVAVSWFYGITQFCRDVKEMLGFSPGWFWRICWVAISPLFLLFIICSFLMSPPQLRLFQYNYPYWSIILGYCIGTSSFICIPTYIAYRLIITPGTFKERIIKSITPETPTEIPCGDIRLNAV
Sequence of Muscarinic acetylcholine receptor M4 (Homo sapiens) (P08173 whole entry): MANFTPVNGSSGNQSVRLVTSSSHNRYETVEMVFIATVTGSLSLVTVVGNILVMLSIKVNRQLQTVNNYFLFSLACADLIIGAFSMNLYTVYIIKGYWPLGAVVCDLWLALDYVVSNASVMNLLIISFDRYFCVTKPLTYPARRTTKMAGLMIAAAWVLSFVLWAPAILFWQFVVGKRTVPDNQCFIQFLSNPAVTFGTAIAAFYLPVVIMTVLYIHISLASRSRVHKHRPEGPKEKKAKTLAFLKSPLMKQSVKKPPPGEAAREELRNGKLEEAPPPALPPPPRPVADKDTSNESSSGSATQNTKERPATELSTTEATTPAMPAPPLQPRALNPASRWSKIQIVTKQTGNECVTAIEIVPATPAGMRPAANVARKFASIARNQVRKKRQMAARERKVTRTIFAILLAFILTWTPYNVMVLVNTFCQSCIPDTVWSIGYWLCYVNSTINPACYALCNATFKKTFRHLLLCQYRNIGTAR
Sequence of Beta-3 adrenergic receptor (Homo sapiens) (P13945 whole entry, looked up): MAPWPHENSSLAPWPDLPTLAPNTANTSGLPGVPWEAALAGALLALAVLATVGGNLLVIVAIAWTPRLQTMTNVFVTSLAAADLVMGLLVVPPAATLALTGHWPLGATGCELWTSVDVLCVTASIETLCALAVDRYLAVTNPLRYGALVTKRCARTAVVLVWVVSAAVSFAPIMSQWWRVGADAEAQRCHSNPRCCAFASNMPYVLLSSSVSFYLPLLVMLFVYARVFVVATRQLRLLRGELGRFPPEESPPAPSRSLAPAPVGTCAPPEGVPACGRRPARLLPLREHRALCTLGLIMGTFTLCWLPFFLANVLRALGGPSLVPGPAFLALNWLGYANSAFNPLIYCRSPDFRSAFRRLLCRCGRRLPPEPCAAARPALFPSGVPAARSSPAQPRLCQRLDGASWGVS
Sequence of D(4) dopamine receptor (Homo sapiens) (P21917 whole entry): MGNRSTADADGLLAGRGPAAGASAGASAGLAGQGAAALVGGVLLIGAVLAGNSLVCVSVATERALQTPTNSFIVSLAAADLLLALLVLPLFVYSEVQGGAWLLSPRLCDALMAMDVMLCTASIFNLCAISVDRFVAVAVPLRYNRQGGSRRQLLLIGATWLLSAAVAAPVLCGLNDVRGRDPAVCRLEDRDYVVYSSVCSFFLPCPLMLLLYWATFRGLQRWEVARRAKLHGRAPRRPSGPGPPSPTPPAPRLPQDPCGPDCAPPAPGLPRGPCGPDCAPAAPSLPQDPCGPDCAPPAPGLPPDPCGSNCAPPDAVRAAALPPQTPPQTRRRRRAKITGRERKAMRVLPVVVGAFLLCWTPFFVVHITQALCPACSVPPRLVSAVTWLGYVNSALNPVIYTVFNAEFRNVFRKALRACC
Sequence of Histamine H4 receptor (Homo sapiens) (Q9H3N8 whole entry): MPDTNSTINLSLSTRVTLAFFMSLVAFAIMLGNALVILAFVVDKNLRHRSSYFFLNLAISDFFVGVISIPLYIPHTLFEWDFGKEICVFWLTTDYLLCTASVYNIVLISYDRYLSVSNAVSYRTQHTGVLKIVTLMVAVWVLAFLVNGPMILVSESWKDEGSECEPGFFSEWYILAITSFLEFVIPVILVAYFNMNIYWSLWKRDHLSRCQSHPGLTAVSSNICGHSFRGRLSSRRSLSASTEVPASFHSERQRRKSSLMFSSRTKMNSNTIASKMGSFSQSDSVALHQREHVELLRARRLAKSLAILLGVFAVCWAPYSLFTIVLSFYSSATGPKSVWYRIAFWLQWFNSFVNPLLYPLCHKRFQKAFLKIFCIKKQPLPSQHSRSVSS

What does the source list for `CN1C(=O)[C@@H](N2CCc3cn(Cc4ccccc4)nc3C2=O)COc2ccccc21` [TP-030-1]?
inhibition [1]: 9.59%; inhibition (Rattus norvegicus): -7%; inhibition [2]: 5.21%; inhibition [3]: 20.5%; inhibition [4]: -8%; inhibition [5]: -4.81%; inhibition [6]: 10.5%; inhibition [7]: 17.4%; IC50 [8]: 1000 nM; inhibition [9]: 5.99%; inhibition [10]: 3.8%; inhibition [11]: 8.56%; IC50 [12]: 1000 nM; inhibition [13]: 6.09%; inhibition [14]: 0.6%; inhibition [15]: 12%; inhibition [16]: 9.8%; IC50 [17]: 1000 nM

Which IC50 [18] does the source give for `CN1C(=O)[C@@H](N2CCc3cn(CC4CCS(=O)(=O)CC4)nc3C2=O)COc2ccccc21` [TP-030n] here?
The IC50 was 1000 nM.

What about the IC50 [19] of the same compound?
The IC50 was 1000 nM.

And the IC50 [20]?
The IC50 was 1000 nM.

What about the IC50 [21] of the same compound?
Its IC50 is 1000 nM.

And the IC50 [22]?
The IC50 was 1000 nM.

What about the IC50 [23] of the same compound?
The IC50 was 1000 nM.

What about the inhibition [24] of the same compound?
Its inhibition is 4%.

And the IC50 [25]?
The IC50 was 1000 nM.

What about the IC50 [26] of the same compound?
Its IC50 is 1000 nM.

And the IC50 [27]?
The IC50 was 1000 nM.

What about the IC50 [28] of the same compound?
Its IC50 is 1000 nM.

What about the IC50 [29] of the same compound?
Its IC50 is 1000 nM.

And the IC50 (Activin receptor type-1B)?
Its IC50 is 1000 nM.

What about the IC50 [30] of the same compound?
Its IC50 is 1000 nM.

What about the IC50 [31] of the same compound?
Its IC50 is 1000 nM.

What about the IC50 [32] of the same compound?
The IC50 was 1000 nM.

What about the IC50 [33] of the same compound?
Its IC50 is 1000 nM.

And the IC50 (Angiopoietin-1 receptor)?
The IC50 was 1000 nM.

And the inhibition at 60 min, 10 µM (hERG (KCNH2))?
Its inhibition at 60 min, 10 µM is 11% (not active).
